Results as given in patent US4465673A, “Pentagalloylglucose antiviral composition” (Tanaka; Yasuo, priority 1983, dated 1984).

Experiments:
[1] = test system: herpes simplex virus; assay: Antiviral activity against herpes simplex virus in FL cells (multinucleated giant cell formation); type: cell-based; conditions: FL cell monolayers, sample added 1 h after virus, 36° C., 5% carbon dioxide, 24 hours incubation
Procedure: Antiviral activity of 1,2,3,4,6-pentagalloylglucose against herpes simplex virus was assayed. Procedure:
Monolayers were prepared from dispersed FL cells in Petri dishes of diameter 35 mm, 24 hours prior to the assay. On carrying out the assay, the medium in each dish was poured off and each dish received 1 ml of medium containing herpes simplex virus. The dishes were incubated at 36° C. in a humidified atmosphere containing 5% of gaseous carbon dioxide. After an hour, each dish further received 1 ml of medium and 20-200 μl of an aqueous 1,2,3,4,6-pentagalloylglucose solution. Incubation was continued for 24 hours and then all the dishes were inspected for multinucleated giant cell. Antiviral activity was defined as the minimum concentration of sample at which no multinucleated giant cell appeared.

[2] = Acute toxicity in rats; type: in vivo; conditions: in a usual manner
Procedure: Acute toxicity of 1,2,3,4 6-pentagalloylglucose was assayed using rats in a usual manner.

Question: With “1,2,3,4,6-pentagalloylglucose [Product of Example 1]” as the compound, how does the “Antiviral activity (minimum concentration of sample at which no multinucleated giant cell appeared)” value [1] read?
Answer: 26 µg/mL

Question: What does the source list for `O=C(OCC1OC(OC(=O)c2cc(O)c(O)c(O)c2)C(OC(=O)c2cc(O)c(O)c(O)c2)C(OC(=O)c2cc(O)c(O)c(O)c2)C1OC(=O)c1cc(O)c(O)c(O)c1)c1cc(O)c(O)c(O)c1` (stereo not drawn) [1,2,3,4,6-pentagalloylglucose]?
Answer: minimal effective concentration ([1]; read-out: Antiviral activity (minimum concentration of sample at which no multinucleated giant cell appeared)): 25 µg/mL; Acute toxicity [2]: extremely low
